Test results: patent US10618901B2 (GlaxoSmithKline Intellectual Property Development Limited, priority 2014, dated 2020)
Read-outs that look alike come from different tables or passages of the source.

Target: T1, LRRK2 Ser935 phosphorylation in SH-SY5Y cells over-expressing recombinant full length LRRK2 (Homo sapiens, UniProt Q5S007)
T1 construct: A BacMam virus expressing full length recombinant LRRK2 was purchased from Invitrogen; host or cells: SH-SY5Y (BacMam transduction)
Test: Recombinant cellular LRRK2 AlphaScreen assay
Assay type: cell-based
Source text: Recombinant Cellular LRRK2 AlphaScreen Assay
To determine the activity of compounds against LRRK2 kinase activity in cells, the observed LRRK2 kinase-dependent modulation of LRRK2 Ser 935 phosphorylation (Dzamko et al., 2010, Biochem. J. 430: 405-413) was utilized to develop a quantitative 384 well plate-based immunoassay of LRRK2 Ser935 phosphorylation in the human neuroblastoma cell line SH-SY5Y, engineered to over-express recombinant full length LRRK2 protein.
A BacMam virus expressing full length recombinant LRRK2 was purchased from Invitrogen and amplified by inoculation of SF-9 cells at MOI 0.3 for 4-5 days in Sf-900 III SFM medium supplemented with 3% fetal bovine serum. Infected cell cultures were then centrifuged at 2000 g for 20 minutes, viral supernatant titer determined by anti-gp64 plaque assay and stored at 4° C.
Affinity-purified anti-phospho LRRK2 Ser935 sheep polyclonal antibody (Dzamko et al., 2010, Biochem. J. 430: 405-413) was biotinylated by standard methods (PerkinElmer). Anti-LRRK2 rabbit polyclonal antibody was purchased from Novus Biologicals. AlphaScreen Protein A IgG Kit (including acceptor and donor beads) was purchased from Perkin Elmer.
SH-SY5Y cells were grown in DMEM/F12 medium with 10% dialysed fetal bovine serum and harvested by treatment with 0.5% trypsin-EDTA for 5 minutes at 37° C. followed by centrifugation at 1000 rpm for 4 minutes. The cell pellet was resuspended in Opti-MEM reduced serum media (Invitrogen) at 200,000 cells/ml and mixed with the BacMam LRRK2 virus at M01=50. 50 μl cell solutions were then dispensed to each well of a 384-well plate and incubated at 37° C., 5% CO2 for 24 hours.
Serial dilutions of test compounds were prepared in Opti-MEM reduced serum media (Invitrogen) and 5.6 ul transferred from compound plate to cell assay plate to achieve a top final assay concentration of 10 uM. DMSO was used in certain wells as controls. Cells were incubated at 37° C., 5% CO2 for 60 minutes. The medium was then removed and cells lysed by addition of 20 ul cell lysis buffer (Cell Signaling Technology) and incubation at 4° C. for 20 minutes. 10 ul of antibody/acceptor bead mix [(1/1000 biotinylated-pS935 LRRK2 antibody, 1/1000 total-LRRK2 antibody, 1/100 Acceptor beads in AlphaScreen detection buffer (25 mM Hepes (pH 7.4), 0.5% Triton X-100, 1 mg/ml Dextran 500 and 0.1% BSA)] was then added to each well and plates incubated for 2 hours at ambient temperature in the dark. 10 μl of donor beads solution (1/33.3 donor beads in AlphaScreen detection buffer) was then added to each well. Following incubation for a further 2 hours at ambient temperature in the dark, plates were read on an EnVision™ plate reader at emission 520-620 nm with excitation 680 nm. Dose response curve data was based on sigmoidal dose-response model.

[1] = read-out: pIC50 in the recombinant cellular LRRK2 alphaScreen assay (converted)

T1 sequence (Q5S007 whole entry): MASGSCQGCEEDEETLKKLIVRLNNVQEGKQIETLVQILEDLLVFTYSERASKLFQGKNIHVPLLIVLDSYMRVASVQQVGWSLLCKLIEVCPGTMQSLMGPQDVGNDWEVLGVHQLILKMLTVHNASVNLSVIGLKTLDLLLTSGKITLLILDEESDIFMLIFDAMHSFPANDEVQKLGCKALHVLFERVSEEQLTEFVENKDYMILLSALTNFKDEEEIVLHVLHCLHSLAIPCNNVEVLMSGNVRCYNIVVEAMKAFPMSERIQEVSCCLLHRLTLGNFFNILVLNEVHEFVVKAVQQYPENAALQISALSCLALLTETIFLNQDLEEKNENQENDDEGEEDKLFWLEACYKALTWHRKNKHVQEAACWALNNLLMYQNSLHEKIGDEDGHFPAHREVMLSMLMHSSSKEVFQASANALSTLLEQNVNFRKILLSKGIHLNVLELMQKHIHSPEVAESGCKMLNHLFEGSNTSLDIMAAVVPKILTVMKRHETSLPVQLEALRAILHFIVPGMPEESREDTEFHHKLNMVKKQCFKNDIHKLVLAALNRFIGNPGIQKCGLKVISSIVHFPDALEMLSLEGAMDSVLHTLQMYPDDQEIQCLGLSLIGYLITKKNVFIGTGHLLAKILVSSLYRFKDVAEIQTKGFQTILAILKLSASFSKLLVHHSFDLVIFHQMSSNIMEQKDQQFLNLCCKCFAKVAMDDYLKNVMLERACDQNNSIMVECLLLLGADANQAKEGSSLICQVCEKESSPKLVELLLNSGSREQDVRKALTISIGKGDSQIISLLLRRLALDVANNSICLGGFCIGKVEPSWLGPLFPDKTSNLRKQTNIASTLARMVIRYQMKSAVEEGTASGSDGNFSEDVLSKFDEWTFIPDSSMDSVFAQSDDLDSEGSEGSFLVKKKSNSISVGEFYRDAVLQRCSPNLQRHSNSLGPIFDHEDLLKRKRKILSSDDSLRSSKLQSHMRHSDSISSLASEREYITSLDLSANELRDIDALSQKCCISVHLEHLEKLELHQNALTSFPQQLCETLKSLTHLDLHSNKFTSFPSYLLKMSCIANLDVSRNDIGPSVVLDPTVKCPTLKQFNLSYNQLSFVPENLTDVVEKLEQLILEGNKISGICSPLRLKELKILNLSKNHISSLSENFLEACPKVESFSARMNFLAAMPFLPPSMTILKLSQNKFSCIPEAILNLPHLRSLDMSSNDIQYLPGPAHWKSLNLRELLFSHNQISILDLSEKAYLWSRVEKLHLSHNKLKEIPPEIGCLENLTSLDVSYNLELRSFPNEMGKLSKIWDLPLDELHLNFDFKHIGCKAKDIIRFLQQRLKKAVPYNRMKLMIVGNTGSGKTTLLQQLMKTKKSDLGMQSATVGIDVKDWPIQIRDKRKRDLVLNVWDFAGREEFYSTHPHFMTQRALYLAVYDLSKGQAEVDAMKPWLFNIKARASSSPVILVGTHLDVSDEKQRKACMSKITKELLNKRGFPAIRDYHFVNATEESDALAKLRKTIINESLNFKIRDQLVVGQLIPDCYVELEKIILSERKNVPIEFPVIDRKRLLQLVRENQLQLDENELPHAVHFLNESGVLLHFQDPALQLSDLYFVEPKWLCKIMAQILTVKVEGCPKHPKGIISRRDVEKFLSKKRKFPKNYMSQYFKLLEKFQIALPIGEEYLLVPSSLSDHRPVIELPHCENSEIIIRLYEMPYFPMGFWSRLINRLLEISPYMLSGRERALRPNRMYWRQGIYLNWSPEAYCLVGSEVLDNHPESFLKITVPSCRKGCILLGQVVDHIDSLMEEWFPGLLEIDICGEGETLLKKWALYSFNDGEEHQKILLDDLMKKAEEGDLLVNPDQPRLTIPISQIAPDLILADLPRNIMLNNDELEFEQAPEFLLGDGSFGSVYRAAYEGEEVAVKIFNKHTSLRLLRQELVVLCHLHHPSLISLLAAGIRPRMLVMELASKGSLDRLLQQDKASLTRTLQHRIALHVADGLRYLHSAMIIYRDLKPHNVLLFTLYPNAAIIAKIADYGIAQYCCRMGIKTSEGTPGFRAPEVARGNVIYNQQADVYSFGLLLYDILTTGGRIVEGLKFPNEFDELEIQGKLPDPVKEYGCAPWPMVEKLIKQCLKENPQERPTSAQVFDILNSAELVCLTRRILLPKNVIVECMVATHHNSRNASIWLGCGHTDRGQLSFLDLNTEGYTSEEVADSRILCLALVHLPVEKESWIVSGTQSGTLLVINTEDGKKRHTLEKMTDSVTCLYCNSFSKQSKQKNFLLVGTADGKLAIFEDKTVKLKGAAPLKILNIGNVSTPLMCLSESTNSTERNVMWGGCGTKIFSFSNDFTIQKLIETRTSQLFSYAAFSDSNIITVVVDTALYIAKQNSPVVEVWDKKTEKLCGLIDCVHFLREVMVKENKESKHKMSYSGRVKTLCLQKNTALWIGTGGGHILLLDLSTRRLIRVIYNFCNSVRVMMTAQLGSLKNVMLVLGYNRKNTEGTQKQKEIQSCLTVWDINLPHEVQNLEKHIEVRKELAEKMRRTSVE

SMILES | IC50 [1] | IC50 (LRRK2 Ser935 phosphorylation, 60 minutes, read-out: recombinant cellcular LRRK2 alphaScreen assay (pIC50) (converted))
CCOc1nc(Nc2cnn(C3CCCC3O)c2Cl)nc2[nH]ccc12 (racemic) [Example E36, (±)-2-(5-chloro-4-((4-ethoxy-7H-pyrrolo-[2,3-d]-pyrimidin-2-yl)amino)-1H-pyrazol-1-yl)cyclopentanol] | ≤ 100 nM | 
CCOc1nc(Nc2cnn(C3CCCC3O)c2C)nc2[nH]ccc12 (racemic) [Example E39, (±)-2-(4-((4-ethoxy-7H-pyrrolo[2,3-d]pyrimidin-2-yl)amino)-5-methyl-1H-pyrazol-1-yl)cyclopentanol] | ≤ 100 nM | 
CCOc1nc(Nc2cnn(C3CCC(O)C3)c2Cl)nc2[nH]ccc12 (racemic) [Example E101, (±)-trans-3-(5-chloro-4-((4-ethoxy-7H-pyrrolo[2,3-d]pyrimidin-2-yl)amino)-1H-pyrazol-1-yl) cyclopentanol] | ≤ 100 nM | 
CCOc1nc(Nc2cnn(C3CCOC3)c2C)nc2[nH]ccc12 (single isomer, unassigned) [Example E16, 4-ethoxy-N-(5-methyl-1-(tetrahydrofuran-3-yl)-1H-pyrazol-4-yl)-7H-pyrrolo-[2,3-d]-pyrimidin-2-amine] | ≤ 100 nM | 
CCOc1nc(Nc2cnn(C3CCCOC3)c2C)nc2[nH]ccc12 (single isomer, unassigned) [Example E30, 4-ethoxy-N-(5-methyl-1-(tetrahydro-2H-pyran-3-yl)-1H-pyrazol-4-yl)-7H-pyrrolo-[2,3-d]pyrimidin-2-amine] | ≤ 100 nM | 
CCOc1nc(Nc2cnn([C@@H]3CCO[C@H](C)C3)c2C)nc2[nH]ccc12 (single isomer, unassigned) [Example E42] | ≤ 100 nM | 
CCOc1nc(Nc2cnn(C3CN(C)CC3F)c2C)nc2[nH]ccc12 (single isomer, unassigned) [Example E59, 4-ethoxy-N-(1-(4-fluoro-1-methylpyrrolidin-3-yl)-5-methyl-1H-pyrazol-4-yl)-7H-pyrrolo-[2,3-d]pyrimidin-2-amine] | ≤ 100 nM | 
CCOc1nc(Nc2cnn(C3CCCC3(C)O)c2C)nc2[nH]ccc12 (single isomer, unassigned) [Example E77, trans-2-(4-((4-ethoxy-7H-pyrrolo-[2,3-d]pyrimidin-2-yl)amino)-5-methyl-1H-pyrazol-1-yl)-1-methylcyclopentanol] | ≤ 100 nM | 
CCOc1nc(Nc2cnn(CC(C)N3CCOCC3)c2C)nc2[nH]ccc12 (single isomer, unassigned) [Example E92] | ≤ 100 nM | 
CCOc1nc(Nc2cnn(C3CCN(C4COC4)CC3F)c2C)nc2[nH]ccc12 (single isomer, unassigned) [Example E102, cis-4-ethoxy-N-(1-(3-fluoro-1-(oxetan-3-yl)piperidin-4-yl)-5-methyl-1H-pyrazol-4-yl)-7H-pyrrolo[2,3-d]pyrimidin-2-amine] | ≤ 100 nM | 
CCOc1nc(Nc2cnn(C3CCN(C4COC4)CC3F)c2Cl)nc2[nH]ccc12 (single isomer, unassigned) [Example E106, cis-N-(5-chloro-1-(3-fluoro-1-(oxetan-3-yl)piperidin-4-yl)-1H-pyrazol-4-yl)-4-ethoxy-7H-pyrrolo[2,3-d]pyrimidin-2-amine] | ≤ 100 nM | 
CCOc1nc(Nc2cnn(C3CCC(N4CCOCC4)C3)c2C)nc2[nH]ccc12 (single isomer, unassigned) [Example E108, (trans)-4-ethoxy-N-(5-methyl-1-(3-morpholinocyclopentyl)-1H-pyrazol-4-yl)-7H-pyrrolo[2,3-d]pyrimidin-2-amine] | ≤ 100 nM | 
CCOc1nc(Nc2cnn(C3CCC(N4CCOCC4)C3)c2Cl)nc2[nH]ccc12 (single isomer, unassigned) [Example E110, (trans)-N-(5-chloro-1-(3-morpholinocyclopentyl)-1H-pyrazol-4-yl)-4-ethoxy-7H-pyrrolo [2,3-d]pyrimidin-2-amine] | ≤ 100 nM | 
CCOc1nc(Nc2cnn(C3CNCCC3(F)F)c2C)nc2[nH]ccc12 (single isomer, unassigned) [Example E117, N-(1-(4,4-difluoropiperidin-3-yl)-5-methyl-1H-pyrazol-4-yl)-4-ethoxy-7H-pyrrolo[2,3-d]pyrimidin-2-amine] | ≤ 100 nM | 2.51 nM
CCOc1nc(Nc2cnn(C3CN(C4COC4)CCC3(F)F)c2C)nc2[nH]ccc12 (single isomer, unassigned) [Example E119, N-(1-(4,4-difluoro-1-(oxetan-3-yl)piperidin-3-yl)-5-methyl-1H-pyrazol-4-yl)-4-ethoxy-7H-pyrrolo[2,3-d]pyrimidin-2-amine] | ≤ 100 nM | 
CCOc1nc(Nc2cnn(C3CN(C4COC4)CCC3(F)F)c2Cl)nc2[nH]ccc12 (single isomer, unassigned) [Example E123, N-(5-chloro-1-(4,4-difluoro-1-(oxetan-3-yl)piperidin-3-yl)-1H-pyrazol-4-yl)-4-ethoxy-7H-pyrrolo[2,3-d]pyrimidin-2-amine] | ≤ 100 nM | 
CCOc1nc(Nc2cnn(C3CNCCC3(F)F)c2Cl)nc2[nH]ccc12 (single isomer, unassigned) [Example E125, N-(5-chloro-1-(4,4-difluoropiperidin-3-yl)-1H-pyrazol-4-yl)-4-ethoxy-7H-pyrrolo [2,3-d] pyrimidin-2-amine] | ≤ 100 nM | 

Results, then the compound that gave them:

IC50 [1] | IC50 (LRRK2 Ser935 phosphorylation, 60 minutes, read-out: recombinant cellcular LRRK2 alphaScreen assay (pIC50) (converted)) | SMILES
≤ 100 nM |  | CCOc1nc(Nc2cnn(C3CN(C4COC4)CCO3)c2Cl)nc2[nH]ccc12 (racemic) [Example E140, (±)-N-(5-chloro-1-(4-(oxetan-3-yl)morpholin-2-yl)-1H-pyrazol-4-yl)-4-ethoxy-7H-pyrrolo [2,3-d]pyrimidin-2-amine]
≤ 100 nM |  | CCOc1nc(Nc2cnn(C3CC(N4CCOCC4)CCC3(F)F)c2Cl)nc2[nH]ccc12 (racemic) [Example E145, (±)-trans-N-(5-chloro-1-(2,2-difluoro-5-morpholinocyclohexyl)-1H-pyrazol-4-yl)-4-ethoxy-7H-pyrrolo[2,3-d]pyrimidin-2-amine]
≤ 100 nM |  | CCOc1nc(Nc2cnn(C3CCOCC3F)c2C)nc2[nH]ccc12 (single isomer, unassigned) [Example E128, (cis)-4-ethoxy-N-(1-(3-fluorotetrahydro-2H-pyran-4-yl)-5-methyl-1H-pyrazol-4-yl)-7H-pyrrolo[2,3-d]pyrimidin-2-amine]
≤ 100 nM |  | CCOc1nc(Nc2cnn(C3CCN(C4COC4)CC3F)c2CC)nc2[nH]ccc12 (single isomer, unassigned) [Example E130, (trans)-4-ethoxy-N-(5-ethyl-1-(3-fluoro-1-(oxetan-3-yl)piperidin-4-yl)-1H-pyrazol-4-yl)-7H-pyrrolo[2,3-d]pyrimidin-2-amine]
≤ 100 nM |  | CCOc1nc(Nc2cnn(C3CCN(C4COC4)CC3(F)F)c2C)nc2[nH]ccc12 (single isomer, unassigned) [Example E131, N-(1-(3,3-difluoro-1-(oxetan-3-yl)piperidin-4-yl)-5-methyl-1H-pyrazol-4-yl)-4-ethoxy-7H-pyrrolo[2,3-d]pyrimidin-2-amine]
≤ 100 nM |  | CCOc1nc(Nc2cnn(C3CCN(C4COC4)CC3(F)F)c2Cl)nc2[nH]ccc12 (single isomer, unassigned) [Example E133, N-(5-chloro-1-(3,3-difluoro-1-(oxetan-3-yl)piperidin-4-yl)-1H-pyrazol-4-yl)-4-ethoxy-7H-pyrrolo[2,3-d]pyrimidin-2-amine]
≤ 100 nM |  | CCOc1nc(Nc2cnn(C3CCN(C4COC4)CC3(C)F)c2C)nc2[nH]ccc12 (single isomer, unassigned) [Example E138, (4-ethoxy-7H-pyrrolo[2,3-d]pyrimidin-2-yl)-[1-(3-fluoro-3-methyl-1-oxetan-3-yl-piperidin-4-yl)-5-methyl-1H-pyrazol-4-yl]-amine]
≤ 100 nM |  | CCOc1nc(Nc2cnn(C3CNCCO3)c2Cl)nc2[nH]ccc12 (single isomer, unassigned) [Example E143, N-(5-chloro-1-(morpholin-2-yl)-1H-pyrazol-4-yl)-4-ethoxy-7H-pyrrolo[2,3-d]pyrimidin-2-amine]
